Results taken from ChEMBL document CHEMBL5608181, “Discovery of indazole inhibitors for heat shock protein 90 as anti-cancer agents” (Eur J Med Chem, 2024).
Activity calls are given as the source filed them. The calls are words filed in the database; no cut-off is given here.

Legend:
JIMT-1 = assay: Antiproliferative activity against human JIMT-1 cells assessed as inhibition of cell viability at 10 uM measured after 72 hrs by CellTiter 96 Aqueous One Solution Cell Proliferation Assay; assay type: functional, cell-based
HEK293 = assay: Cytotoxicity against HEK293 cells assessed as reduction in cell viability at 10 uM measured after 72 hrs by CellTiter 96 Aqueous One Solution Cell Proliferation Assay; assay type: toxicity, cell-based; details: human, hek293, 72 h
BT-474 = assay: Antiproliferative activity against human BT-474 cells assessed as inhibition of cell viability at 10 uM measured after 72 hrs by CellTiter 96 Aqueous One Solution Cell Proliferation Assay; assay type: functional, cell-based

## COCCn1cc(NC(=O)c2ccc3c(c2OC)C=CC(C)(C)O3)c2ccccc21
JIMT-1
  Activity: Active
HEK293
  Activity: Toxic
BT-474
  Activity: Active
